Patent publication US7465752B2, “Pentenoic acid derivatives, processes for the preparation thereof, pharmaceutical compositions comprising them, and therapeutic applications thereof” (Merck Patent GmbH, priority 2004, dated 2008)

Tests used:
db/db mice = details: 100 mg/kg/day orally for 15 days
Protocol: The antidiabetic and hypolipidaemiant activity of the compounds was determined orally on db/db mice.
Nine-week-old db/db mice are treated orally for 15 days with the compound of Example 6 (100 mg/kg/day). Each group studied comprises seven animals. After treatment for 15 days, retro-orbital samples are taken under mild anaesthesia and after fasting for four hours.
The following parameters were measured:
Assay of the glycaemia (glucose oxidase) and of the lipid parameters on the sera at D15 (COBAS): triglycerides, total cholesterol (CHOL), HDL cholesterol (HDL-C) and free fatty acids (FFA) (BioMérieux and Waco Chemicals assay kit).
The measurements reported represent mean values±standard error.

[1] = target: chimeric protein PPARγ-GaI4 (Homo sapiens, UniProt P37231); details: 50 μM, 18 hours contact, CV-1 cells
Protocol: (§1) The measurement of the PPAR activation was performed according to a lo technique described by Lehmann et al. (1995, J. Biol. Chem., 270, 12953-12956).
(§2) CV-1 cells (monkey kidney cells) are co-transfected with an expression vector for the chimeric proteins PPARα-GaI4 or PPARγ-GaI4 and with a “reporter” plasmid that allows the expression of the luciferase gene placed under the control of a promoter comprising GaI4 response elements.
(§3) The cells are plated into 96-well microplates and co-transfected using a commercial reagent with the reporter plasmid (pG5-tk-pGL3) and the expression vector for the chimeric protein (PPARα-GaI4 or PPARγ-GaI4). After incubating for 4 hours, whole culture medium (comprising 10% foetal calf serum) is added to the wells. After 24 hours, the medium is removed and replaced with whole medium comprising the test products (50 μM final). The products are left in contact with the cells for 18 hours. The cells are then lysed and the luciferase activity is measured using a luminometer.

[2] = target: chimeric protein PPARα-GaI4 (Homo sapiens, UniProt Q07869); details: 50 μM, 18 hours contact, CV-1 cells
Protocol: as §1, §2, §3

GaI4 alone = details: vector expressing GaI4 alone, in the presence of the product
Protocol: as §2, §3

[3] = serum at D15, fasted 4 hours, mean ± standard error

Chain of chimeric protein PPARγ-GaI4 (P37231 238-503 limits assumed, change not shown): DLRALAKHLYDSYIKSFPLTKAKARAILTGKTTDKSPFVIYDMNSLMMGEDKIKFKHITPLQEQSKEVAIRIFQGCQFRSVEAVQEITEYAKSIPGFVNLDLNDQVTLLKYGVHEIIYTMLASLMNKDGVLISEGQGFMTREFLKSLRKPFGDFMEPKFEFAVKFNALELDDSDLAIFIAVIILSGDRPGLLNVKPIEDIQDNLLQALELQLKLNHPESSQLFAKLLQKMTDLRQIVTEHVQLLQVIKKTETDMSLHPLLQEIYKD
Chain of chimeric protein PPARα-GaI4 (Q07869 239-466 limits assumed, change not shown): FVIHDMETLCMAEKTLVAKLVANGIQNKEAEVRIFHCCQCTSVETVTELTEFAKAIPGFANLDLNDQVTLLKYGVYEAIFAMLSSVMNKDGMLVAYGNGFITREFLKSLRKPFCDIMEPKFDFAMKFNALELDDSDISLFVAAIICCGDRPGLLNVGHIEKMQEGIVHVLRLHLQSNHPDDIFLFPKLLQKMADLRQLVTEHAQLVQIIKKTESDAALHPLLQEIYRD

With `O=C(O)[C@@H](CC=Cc1ccccc1)Oc1ccc(-c2cc3ccccc3s2)cc1` (racemic) [Example 6, (R,S)-2-{[4-(benzo[b]thiophen-2-yl)phenyl]oxy}-5-phenylpent-4-enoic acid] the “FFA, % var. (percentage of variation versus control)” value (db/db mice; D15, not significant) was −10% (ns), the “CHOL, % var. (percentage of variation versus control)” value (db/db mice; D15, p < 0.01 versus control) was −20% (**) and the “Glycaemia, % var. (percentage of variation versus control)” value (db/db mice; D15, p < 0.01 versus control) was −50% (**). The “HDL-C, % var. (percentage of variation versus control)” value (db/db mice; D15, p < 0.01 versus control) was −25% (**), the “Triglycerides, % var. (percentage of variation versus control)” value (db/db mice; D15, p < 0.05 versus control) was −31% (*) and the “CHOL (total cholesterol)” value (db/db mice; [3]) was 2.98 ± 0.25 mM. For the same compound, the “FFA (free fatty acids)” value (db/db mice; [3]) was 0.78 ± 0.18 mM, the Glycaemia (db/db mice; [3]) was 14.93 ± 4.29 Mm and the HDL-C (db/db mice; [3]) was 2.31 ± 0.20 Mm. For the same compound, the Triglycerides (db/db mice; [3]) was 1.47 ± 0.59 mM, the “PPAR activation factor (reporter gene expression relative to control cells)” value [1] was 21 and the “PPAR activation factor (reporter gene expression relative to control cells)” value [2] was 7. For the same compound, the “luciferase activity in absence of the PPAR α or γ ligand binding domain” value (GaI4 alone) was “zero”.
